Results: PubChem BioAssay AID2060621 (Molecular Pharmacology Branch, DTP, NCI, 2025)
“And” between values parts separate entries of the source, which are not always exact repeats. Equal values may be shown once.

Test system: 324938-238-R-J1-PDC complex spheroids viability
Assay: Anticancer human tumor 324938-238-R-J1-PDC patient-derived bladder carcinoma cell line growth inhibition [CLK]
Conditions: for viability, T/C: stronger effect = lower value
Outline: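 Multi-cell-type spheroids combined patient-derived tumor cells with HUVEC endothelial cells and human mesenchymal stem cells. Paired agents were dosed in half-log steps down from about clinical Cmax, or from 10 microM where Cmax was unknown.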
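Note: viability read after seven days of drug exposure.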
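Throughout, for viability, T/C: 100% = DMSO vehicle control wells.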

CCN1CCN(Cc2ccc(Nc3ncc(F)c(-c4cc(F)c5nc(C)n(C(C)C)c5c4)n3)nc2)CC1
viability, T/C (compound 0.00316 µM): 74.7% and 81.3%
viability, T/C (compound 0.01 µM): 69.6% and 74.1%
viability, T/C (compound 0.0316 µM): 60% and 54.8%
viability, T/C (compound 0.1 µM): 41.8% and 48.6%
viability, T/C (compound 0.316 µM): 37% and 36.6%
viability, T/C (compound 1 µM): 36.5% and 46.5%
IC50 (curve of compound): 59.4 nM and 60.2 nM

CC(Nc1ccc2c(c1)OCCn1cc(N3C(=O)OCC3C(F)F)nc1-2)C(N)=O (centres undefined) + CNC(=O)c1ccc(Nc2nc(OC3CCCC3)c3c(-c4ccc5nc(C)oc5c4)c[nH]c3n2)c(OC)c1
IC50 (curve of first compound, second compound 0.0316 µM): 169 nM
IC50 (curve of first compound, second compound 0.1 µM): < 31.6 nM
IC50 (curve of first compound, second compound 0.316 µM): < 31.6 nM
IC50 (curve of first compound, second compound 1 µM): < 31.6 nM
IC50 (curve of first compound, second compound 3.16 µM): < 31.6 nM
IC50 (curve of first compound, second compound 10 µM): < 31.6 nM
viability, T/C (second compound 0.0316 µM, first compound 0.0316 µM): 78.8%
viability, T/C (second compound 0.0316 µM, first compound 0.1 µM): 52.5%
viability, T/C (second compound 0.0316 µM, first compound 0.316 µM): 42.1%
viability, T/C (second compound 0.0316 µM, first compound 1 µM): 35.5%
viability, T/C (second compound 0.0316 µM, first compound 3.16 µM): 22.2%
viability, T/C (second compound 0.0316 µM, first compound 10 µM): 15.3%
viability, T/C (second compound 0.1 µM, first compound 0.0316 µM): 32.2%
viability, T/C (second compound 0.1 µM, first compound 0.1 µM): 28.1%
viability, T/C (second compound 0.1 µM, first compound 0.316 µM): 25%
viability, T/C (second compound 0.1 µM, first compound 1 µM): 21.1%
viability, T/C (second compound 0.1 µM, first compound 3.16 µM): 20.2%
viability, T/C (second compound 0.1 µM, first compound 10 µM): 13.6%
viability, T/C (second compound 0.316 µM, first compound 0.0316 µM): 14%
viability, T/C (second compound 0.316 µM, first compound 0.1 µM): 10.9%
viability, T/C (second compound 0.316 µM, first compound 0.316 µM): 9.84%
viability, T/C (second compound 0.316 µM, first compound 1 µM): 9.27%
viability, T/C (second compound 0.316 µM, first compound 3.16 µM): 6.34%
viability, T/C (second compound 0.316 µM, first compound 10 µM): 5.89%
viability, T/C (second compound 1 µM, first compound 0.0316 µM): 13.4%
viability, T/C (second compound 1 µM, first compound 0.1 µM): 12.3%
viability, T/C (second compound 1 µM, first compound 0.316 µM): 8.46%
viability, T/C (second compound 1 µM, first compound 1 µM): 6.86%
viability, T/C (second compound 1 µM, first compound 3.16 µM): 5.9%
viability, T/C (second compound 1 µM, first compound 10 µM): 4.88%
viability, T/C (second compound 3.16 µM, first compound 0.0316 µM): 13.1%
viability, T/C (second compound 3.16 µM, first compound 0.1 µM): 9.57%
viability, T/C (second compound 3.16 µM, first compound 0.316 µM): 9.31%
viability, T/C (second compound 3.16 µM, first compound 1 µM): 7.44%
viability, T/C (second compound 3.16 µM, first compound 3.16 µM): 7.17%
viability, T/C (second compound 3.16 µM, first compound 10 µM): 4.87%
viability, T/C (second compound 10 µM, first compound 0.0316 µM): 14.4%
viability, T/C (second compound 10 µM, first compound 0.1 µM): 9.66%
viability, T/C (second compound 10 µM, first compound 0.316 µM): 9.38%
viability, T/C (second compound 10 µM, first compound 1 µM): 7.73%
viability, T/C (second compound 10 µM, first compound 3.16 µM): 7.48%
viability, T/C (second compound 10 µM, first compound 10 µM): 4.64%
